From patent US5654427A, “Indolocarbazole derivatives to treat a pathological condition of the prostate” (Kyowa Hakko Kogyo Co., Ltd., priority 1995, dated 1997)
Read-outs that look alike come from different tables or passages of the source.

Key:
Tsu-Pr1 = assay: growth inhibition of Tsu-Pr1 prostate cancer cells (calcein fluorescence); type: cell-based; conditions: Homo sapiens, TSU-Pr1, 72 h, read-out: Tsu-Pr1 IC50
Method: (§1) Throughout the experiment the Tsu-Pr1 and Du-Pro1 cells were maintained in RPMI 1640 medium (GIBCO) containing 10% fetal bovine serum (Hyclone), 2 mM glutamine, 100 U/ml penicillin, and 100 μg/ml streptomycin. The PC-3 cells were maintained in Ham's F12K medium (Irvine Scientific) containing 10% fetal bovine serum (Hyclone), 2 mM glutamine, 100 U/ml penicillin, and 100 μg/ml streptomycin. All cell lines were maintained at 37° C. in a humidified atmosphere containing 5% CO2. The DU-145 cells were maintained in minimal essential medium (Gibco), containing 10% fetal bovine serum (Hyclone), 2 mM glutamine, and no antibiotics.
(§2) Tests for growth inhibition by the candidate compounds were conducted by the following procedure. In each well of a 96-well plate (Falcon) were placed 2,500 cells in 0.1 ml of medium. The cultures were incubated overnight after which a 0.1 ml aliquot of culture medium was added to each well. […] Other control wells received medium without any K-252a derivative compounds. Incubation was continued for three days. On day three the number of cells in each well was measured using a calcein fluorescence assay (Bozyczko-Coyne et al. J. Neurosci. Meth. 50, 205-216 (1993)).
(§3) Calcein AM (Molecular Probes, Eugene, Oreg.), an analog of the viable dye fluorescein diacetate, is taken up by cells and cleaved intracellularly to fluorescent salts that are retained by intact membranes of viable cells. This method thus provides a reliable and quantitative measurement of cell survival. Calcein AM was diluted 2× in Dulbeccos phosphate buffered saline (D-PBS) to 2× the final assay concentration (6 μM) and 100 μl was added to culture wells containing 100 μl of medium. The plates were then incubated for 1 hour at 37° C. Cells were then washed 4 times with D-PBS to remove excess calcein not taken up by cells. The plate was read using a Millipore plate reading fluorimeter (Cytofluor 2350) at emission=485 nm and excitation=538 nm. After subtraction of blank values (wells containing medium but no cells), relative fluorescent values reflect a quantitative measurement of cell survival.
(§4) The number of cells in the wells containing functional derivatives was compared to the number of cells in the control wells. The concentration which inhibited cell growth by 50% was calculated and is referred to as the "IC50 ".

DU-145 = assay: growth inhibition of DU-145 prostate cancer cells (calcein fluorescence); type: cell-based; conditions: Homo sapiens, DU-145, 72 h, read-out: DU-145 C50
Method: as §1, §2, §3, §4

[1] = body weight and weight of peripheral organs in sexually immature mice; conditions: for Body Weight: Table 4, TEPBS 31.5 ± 0.8; for Heart weight / Testes weight / Lung weight / Stomach weight / Kidney weight / Liver weight: Table 5; for Heart weight: TEPBS 171 ± 8.4; for Testes weight: TEPBS 202 ± 6; for Lung weight: TEPBS 230 ± 15.9; for Stomach weight: TEPBS 294 ± 22; for Kidney weight: TEPBS 576 ± 22; for Liver weight: TEPBS 1937 ± 75
Excerpt: (§5) The following animal model can be used to test the efficacy of a functional derivative for treatment of a proliferative prostate condition. Sexually immature male mice of 15-20 g each (Charles River Laboratories, Raleigh, N.C.) were used in the following in vivo study. The mice were allowed at least 3 days after purchase to acclimate before being used in any experiments.
(§6) Each test group contained 12 mice. […] At the end of the 21 day dosing period the mice were sacrificed and whole body blood, dorsal prostate, ventral prostate, coagulating glands, seminal vesicles, heart, liver, stomach, lung, kidneys and testes were collected separately and weighed.

PC-3 = assay: growth inhibition of PC-3 prostate cancer cells (calcein fluorescence); type: cell-based; conditions: Homo sapiens, PC-3, 72 h, read-out: PC-3 IC50
Method: as §1, §2
(§7) Calcein AM (Molecular Probes, Eugene, Oreg.), an analog of the viable dye fluorescein diacetate, is taken up by cells and cleaved intracellularly to fluorescent salts that are retained by intact membranes of viable cells. This method thus provides a reliable and quantitative measurement of cell survival. Calcein AM was diluted 2× in Dulbeccos phosphate buffered saline (D-PBS) to 2× the final assay concentration (6 μM) and 100 μl was added to culture wells containing 100 μl of medium. The plates were then incubated for 1 hour at 37° C. Cells were then washed 4 times with D-PBS to remove excess calcein not taken up by cells. The plate was read using a Millipore plate reading fluorimeter (Cytofluor 2350) at emission=485 nm and excitation=538 nm. After subtraction of blank values (wells containing medium but no cells), relative fluorescent values reflect a quantitative measurement of cell survival. […]

prostate glands = assay: inhibition of prostate growth in sexually immature mice (weight of prostate glands); type: in vivo; conditions: for Dorsal Prostate weight: TEPBS 9.8 ± 1.6; for Coagulating Glands weight: TEPBS 25.1 ± 1.6; for Seminal Vesicles weight: TEPBS 75.0 ± 5.0
Excerpt: as §5, §6

trkA = biological target: T1, trkA (Rattus norvegicus, UniProt P35739); assay: inhibition of NGF-stimulated trk autophosphorylation (tyrosine phosphorylation) in PC12 cells, anti-phosphotyrosine Western blot; type: cell-based; conditions: 100 nM compound, NGF 50 ng/ml
T1 construct: are rat pheochromocytoma cells that bear trkA; host or cells: PC12 rat pheochromocytoma cells
T1 sequence (P35739 33-799): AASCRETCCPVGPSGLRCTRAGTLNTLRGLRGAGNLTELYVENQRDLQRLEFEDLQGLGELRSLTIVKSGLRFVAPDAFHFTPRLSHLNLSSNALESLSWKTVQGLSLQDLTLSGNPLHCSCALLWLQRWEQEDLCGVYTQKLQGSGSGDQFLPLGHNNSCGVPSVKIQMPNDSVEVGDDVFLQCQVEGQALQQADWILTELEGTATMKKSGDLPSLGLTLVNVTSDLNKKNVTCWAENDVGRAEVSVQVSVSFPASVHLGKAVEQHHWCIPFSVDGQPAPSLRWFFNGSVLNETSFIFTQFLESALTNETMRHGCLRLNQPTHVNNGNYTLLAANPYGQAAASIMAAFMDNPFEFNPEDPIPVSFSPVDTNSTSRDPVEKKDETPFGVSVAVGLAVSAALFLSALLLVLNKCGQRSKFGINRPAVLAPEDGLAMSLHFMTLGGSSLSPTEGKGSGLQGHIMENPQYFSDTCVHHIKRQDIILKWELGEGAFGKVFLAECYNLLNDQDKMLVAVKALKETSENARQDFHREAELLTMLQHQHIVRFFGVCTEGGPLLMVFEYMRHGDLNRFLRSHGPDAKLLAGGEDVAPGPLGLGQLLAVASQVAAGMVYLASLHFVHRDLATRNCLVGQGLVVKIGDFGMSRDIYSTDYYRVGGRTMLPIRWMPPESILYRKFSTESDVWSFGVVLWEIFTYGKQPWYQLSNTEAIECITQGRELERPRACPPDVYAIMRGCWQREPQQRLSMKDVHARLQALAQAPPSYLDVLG
Method: Candidate compounds for the inhibition of prostate cell proliferation were selected according to their ability to inhibit the tyrosine kinase activity associated with the trks.
PC12 cells (ATCC #CRL1721) are rat pheochromocytoma cells that bear trkA and differentiate into sympathetic neurons when treated with NGF. […] Cells were incubated at 37° C. in a humidified atmosphere of 10% CO2 and 90% air. […] The cells in each culture were disrupted and cell lysates were prepared by standard techniques known to those skilled in the art. Each lysate was incubated with anti-trk antibody whereby immune complexes were formed. […] The immune complexes were collected on Protein A-Sepharose beads, separated by SDS-polyacrylamide gel electrophoresis (SDS-PAGE), and transferred to polyvinylidene difluoride (PVDF) membranes (Millipore Corp., Bedford, Mass.), using techniques well known to those skilled in the art. The membranes were incubated with anti-phosphotyrosine antibody, which binds to the tyrosine phosphorylated trks, but not to the un-phosphorylated form of trks. Proteins bound to anti-phosphotyrosine antibody were visualized with enhanced chemiluminescence (ECL, Amersham), and are shown as dark "spots" in FIG. 1.
Measurement of the autophosphorylation of trk provides a good index of trk tyrosine kinase activity, and thereby of trk stimulation.
Inhibition was indicated by the absence of a spot migrating with the trk marker shown at the left side of the figure. Partial inhibition was indicated by a spot of reduced size.

[2] = tested on: androgen independent human prostate cancer cell lines Tsu-Pr1, DuPro-1, PC-3 and DU-145; assay: growth inhibition of prostate cancer-derived cell lines, overall (calcein fluorescence); type: cell-based; conditions: Table 3
Method: as §1, §2, §7

Du-Pro1 = assay: growth inhibition of Du-Pro1 prostate cancer cells (calcein fluorescence); type: cell-based; conditions: Homo sapiens, 72 h, read-out: Du-Pro1 IC50
Method: as §1, §2, §3, §4

protein kinase C = conditions: background; cited from earlier work
protein kinase A = conditions: background; cited from earlier work
[3] = tested on: myosin light-chain kinase; conditions: background; cited from earlier work
phosphorylase kinase = conditions: background; cited from earlier work
protein kinase G = conditions: background; cited from earlier work
[4] = Table 4, 1 mg/kg s.c. daily 21 days
[5] = Table 4, 10 mg/kg s.c. daily 21 days

SMILES	Body Weight ([1]; 1 mg/kg s.c. daily 21 days)	Body Weight ([1]; 10 mg/kg s.c. daily 21 days)	Heart weight ([1]; 1 mg/kg s.c. daily 21 days)	Testes weight ([1]; 1 mg/kg s.c. daily 21 days)	Lung weight ([1]; 1 mg/kg s.c. daily 21 days)	Stomach weight ([1]; 1 mg/kg s.c. daily 21 days)	Kidney weight ([1]; 1 mg/kg s.c. daily 21 days)	Liver weight ([1]; 1 mg/kg s.c. daily 21 days)	Heart weight ([1]; 10 mg/kg s.c. daily 21 days)	Testes weight ([1]; 10 mg/kg s.c. daily 21 days)	Lung weight ([1]; 10 mg/kg s.c. daily 21 days)	Stomach weight ([1]; 10 mg/kg s.c. daily 21 days)	Kidney weight ([1]; 10 mg/kg s.c. daily 21 days)	Liver weight ([1]; 10 mg/kg s.c. daily 21 days)	weight of the ventral prostates and seminal vesicles, in words (prostate glands; 1 mg/kg)	Dorsal Prostate weight (prostate glands; [4])	Coagulating Glands weight (prostate glands; [4])	Seminal Vesicles weight (prostate glands; [4])	Dorsal Prostate weight (prostate glands; [5])	Coagulating Glands weight (prostate glands; [5])	further results
CC12OC(CC1(O)C(=O)NCCO)n1c3ccccc3c3c4c(c5c6ccccc6n2c5c31)CNC4=O (stereo not shown) [Compound I-12]	32.8 ± 0.4 g	29.5 ± 1.0 g	179 ± 8.78 mg	191 ± 12 mg	244 ± 15.1 mg	329 ± 28 mg	591 ± 16 mg	2120 ± 54 mg	152 ± 9.60 mg	187 ± 5 mg	253 ± 20.9 mg	270 ± 19 mg	552 ± 29 mg	1886 ± 84 mg	reduced the weight of the ventral prostates and seminal vesicles	4.7 ± 0.4 mg	18.0 ± 2.4 mg	54.3 ± 1.5 mg	8.6 ± 1.1 mg	17.6 ± 1.0 mg	IC50 (Tsu-Pr1; 3 days incubation): 38 nM; IC50 (DU-145; 3 days incubation): 750 nM; IC50 (PC-3; 3 days incubation): 690 nM; weight of the dorsal prostate, in words (prostate glands; 1 mg/kg and 10 mg/kg): only reduced after treatment with 1 mg/kg; weight of the ventral prostates and seminal vesicles, in words (prostate glands; 10 mg/kg): reduced the weight of the ventral prostates and seminal vesicles; Ventral Prostate weight (prostate glands; Table 4, 1 mg/kg s.c. daily 21 days, TEPBS 11.3 ± 0.6): 6.2 ± 0.4 mg; Ventral Prostate weight (prostate glands; Table 4, 10 mg/kg s.c. daily 21 days, TEPBS 11.3 ± 0.6): 8.4 ± 0.8 mg; Seminal Vesicles weight (prostate glands; [5]): 55.3 ± 2.2 mg; trk 100 nM (inhibition of phosphorylation) (trkA): +; potency in inhibiting prostate cell line growth, in words [2]: most potent compounds in inhibiting growth in all four cell lines; IC50 (Du-Pro1; 3 days incubation): 310 nM
COC(=O)C1(O)CC2OC1(C)n1c3ccccc3c3c4c(c5c6ccccc6n2c5c31)C(=O)NC4 (stereo not shown) [Compound I-1]	32.2 ± 0.6 g	30.0 ± 0.6 g	164 ± 6.4 mg	216 ± 6 mg	229 ± 8.02 mg	288 ± 10 mg	598 ± 19 mg	1921 ± 81 mg	152 ± 6.58 mg	204 ± 11 mg	263 ± 14.8 mg	295 ± 30 mg	550 ± 18 mg	1765 ± 50 mg	significantly reduced the weight of the ventral prostates and seminal vesicles	6.2 ± 1.3 mg	18.2 ± 2.4 mg	61.4 ± 4.1 mg	6.7 ± 0.7 mg	18.5 ± 1.4 mg	IC50 (Tsu-Pr1): 210 nM; inhibitor of protein kinase C (protein kinase C): inhibitor; IC50 (DU-145): 1200 nM; inhibitor of protein kinase A (protein kinase A): inhibitor; IC50 (PC-3): 3400 nM; effect of the higher dose, in words (prostate glands; 10 mg/kg versus 1 mg/kg): did not produce any greater effect; Seminal Vesicles weight (prostate glands; [5]): 66.4 ± 5.6 mg; Ventral Prostate weight (prostate glands; mouse, in vivo, sc, 1 mg/kg): 7.6 ± 0.9 mg; Ventral Prostate weight (prostate glands; mouse, in vivo, sc, 10 mg/kg): 8.6 ± 0.8 mg; inhibitor of myosin light-chain kinase [3]: inhibitor; inhibitor of phosphorylase kinase (phosphorylase kinase): inhibitor; inhibitor of protein kinase G (protein kinase G): inhibitor; IC50 (Du-Pro1): 750 nM
